In one data set the target is T1, human SP-A (Homo sapiens, UniProt Q8IWL1+Q8IWL2).
T1 construct: Human SP-A was isolated from bronchoalveolar lavage fluid of patients with alveolar proteinosis; from tissue; host or cells: bronchoalveolar lavage fluid of patients with alveolar proteinosis
Nature of the data set: Binding of LL-37 to SP-A by intrinsic tryptophan fluorescence titration. Here is the method:
(§1) Fluorescence measurements were carried out in 5 x 5 quartz cuvettes using an SLM-Aminco AB-2 spectrofluorimeter equipped with a thermostated cuvette holder (± 0.1°C; Spectronic, Waltham, MA, USA). The slit widths were 4 nm for the excitation and emission beams. The tryptophan fluorescence emission spectrum of SP-A and rfhSP-A was recorded from 305 to 400 nm on excitation at 295 nm at 25°C in 5 mM Tris HCl buffer (pH 7.4), with or without 150 mM NaCl. Subsequently, the titration experiment was started by adding increasing amounts of LL-37 to the protein solution in the cuvette. The fluorescence intensity readings were corrected for the dilution caused by LL-37 addition.
(§2) The change in the fluorescence of SP-A (or rfhSP-A) at the emission wavelength maximum was monitored as a function of LL-37 concentration, and the titration data were analyzed by nonlinear least squares fitting to the Hill equation, as previously reported ([24], [35], [36]):
(§3) (1) ΔF/ΔFmax=[L]^nH/([L]^nH+KD)
(§4) where ΔF is the change in fluorescence intensity at 337 nm relative to the intensity of free SP-A (for free rfhSP-A, the emission wavelength maximum was 342 nm); ΔFmax is the change in fluorescence intensity at saturating LL-37 concentrations; KD is the apparent equilibrium dissociation constant; [L] is the molar concentration of free LL-37; and nH is the Hill coefficient.

Data set [1] deals with T2, rfhSP-A (recombinant trimeric fragment of human SP-A) (Homo sapiens, UniProt Q8IWL2).
T2 construct: including the globular carbohydrate recognition domain (CRD), neck, and 8 x Gly-Xaa-Yaa repeats of the collagen stalk; His6 (N, cleaved yes); NT* solubility tag (spider silk) with coxsackievirus 3C protease site (N, cleaved yes); made in house; host or cells: Escherichia coli BL21 (DE3)
The experiment in a line: Binding of LL-37 to rfhSP-A by intrinsic tryptophan fluorescence titration. The protocol:
as §1, §2, §3, §4

Data set [2] relates to A549 cells. In kind it is cell-based, human. To be noted: LL-37 2.5 µM, SP-A 0.15 µM, rfhSP-A 0.88 µM, 15-60 min 37°C; complexes vs LL-37 alone p < 0.001. Here is the method: (§5) Human cell lines of alveolar basal epithelium A549 (ATTC® CCL-185TM) and monocytes U937 (ATTC® CRL-1593.2TM) were incubated in RPMI 1640 supplemented with 10% (v/v) heat-inactivated fetal bovine serum (FBS), antibiotics (100 U/ml penicillin and 100 μg/ml streptomycin), and 2 mM L-glutamine (BioWhittacker).
(§6) Incorporation of Sytox Green in A549 cells was analyzed by confocal microscopy and flow cytometry analysis.
(§7) For flow cytometry analysis, A549 cells were grown in RPMI 1640 medium supplemented with antibiotics, 2 mM L-glutamine, and 10% FBS. […] A-438079 stock was resuspended in DMSO to a final concentration of 30 mM and aliquots were stored at 4°C. Cell fluorescence was analyzed after 15, 30 and 60 minutes in a Becton-Dickinson FACS Calibur cytometer, using Cell Quest software.

Data set [3] has as its system P2X7 channels, A549 pneumocytes. Type of data set: cell-based, human. Particulars: A-438079 10 µM, 15 min pre-treatment; LL-37 2.5 µM, SP-A 0.15 µM, rfhSP-A 0.88 µM, 1 hour. Here is the method:
as §7
(§8) The incorporation of PI in A549 and U937 cell lines was analyzed by flow cytometry. Cells were cultured 18 h in RPMI 1640 medium supplemented with antibiotics, 2 mM L-glutamine, and 10% FBS. Then, cells were harvested and incubated in PBS with 10 µg/ml PI in the presence or absence of 2.5 µM LL-37, 0.15 µM SP-A or 0.88 µM rfhSP-A, and combinations thereof. A549 were incubated at 500,000 cells/ml density and U937 at 1,000,000 cells/ml. PI incorporation was measured after 15, 30, 45 and 60 minutes by flow cytometry. In some experiments, cells were pre-treated with 1 or 10 µM A-438079 or vehicle (DMSO).

In data set [4] the test system is P2X7 channels, U937 monocytes. Type of data set: cell-based, human. To be noted: A-438079 10 µM, 15 min pre-treatment; LL-37 2.5 µM, SP-A 0.15 µM, rfhSP-A 0.88 µM, 1 hour. The protocol: as §7, §8
A further data set relates to U937 cells. The experiment in a line: Propidium iodide uptake, U937. To be noted: LL-37 2.5 µM, SP-A 0.15 µM, rfhSP-A 0.88 µM, 15-60 min, 37°C, flow cytometry. Type of data set: cell-based, human. The protocol:
as §5, §8
Background: A flow cytometer gives signals particle by particle.

Data set [5] deals with A549 cells. In kind it is cell-based, human. Particulars: LL-37 2.5 µM, SP-A 0.15 µM, rfhSP-A 0.88 µM, 30 min 37°C; complexes vs LL-37 alone p < 0.001. The protocol: as §5, §6
For confocal microscopy analysis, cells were seeded to a density of 30,000 cells per well in a 24-well tissue culture plate for 18 h in RPMI 1640 tissue culture medium supplemented with 100 U/ml penicillin, 100 μg/ml streptomycin, 2 mM L-glutamine, and with 5% FBS. The following day, Sytox Green (1 µM, final concentration) was added to the wells 10 minutes before the addition of 2.5 µM (11.25 µg/ml) LL-37 and/or 0.15 µM (100 µg/ml) SP-A or 0.88 µM (50 µg/ml) rfhSP-A for an additional 30 minutes. At the end of the incubation, fluorescence and differential interference contrast micrographs were taken under an Olympus FV1200 confocal system. Quantification of permeabilized cells (Sytox Green+) per cell number was performed using Image J software on each of 12 micrographs per treatment and experiment.

The subject of data set [6] is A549 cells. The experiment in a line: Propidium iodide uptake, A549. Particulars: LL-37 2.5 µM, SP-A 0.15 µM, rfhSP-A 0.88 µM, 15-60 min, 37°C, flow cytometry. In kind it is cell-based, human. The protocol:
as §5, §8

The structures appear in SMILES notation.

T1 sequence (Q8IWL2 21-248): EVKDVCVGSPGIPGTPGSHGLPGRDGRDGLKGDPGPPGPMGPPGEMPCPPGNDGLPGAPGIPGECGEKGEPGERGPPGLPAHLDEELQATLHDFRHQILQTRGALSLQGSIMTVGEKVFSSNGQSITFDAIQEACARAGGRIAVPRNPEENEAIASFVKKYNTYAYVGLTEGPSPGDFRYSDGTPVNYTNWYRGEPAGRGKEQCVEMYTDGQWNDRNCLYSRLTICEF
T1 sequence (Q8IWL1 21-248): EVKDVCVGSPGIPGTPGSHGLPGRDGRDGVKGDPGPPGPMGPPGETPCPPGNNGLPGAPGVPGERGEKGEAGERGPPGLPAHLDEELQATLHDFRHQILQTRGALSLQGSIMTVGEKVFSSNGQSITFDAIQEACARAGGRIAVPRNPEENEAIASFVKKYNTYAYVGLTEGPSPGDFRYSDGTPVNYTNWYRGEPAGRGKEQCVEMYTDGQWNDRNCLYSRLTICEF
T2 sequence (Q8IWL2 77-248 limits assumed): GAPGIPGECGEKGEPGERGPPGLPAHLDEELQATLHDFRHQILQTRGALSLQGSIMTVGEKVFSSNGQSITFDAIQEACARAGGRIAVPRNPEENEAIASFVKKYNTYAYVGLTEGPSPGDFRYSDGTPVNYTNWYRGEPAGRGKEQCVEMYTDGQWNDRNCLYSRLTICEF

Broadly, the Kd is a measure of binding affinity in units of concentration. Take `CC[C@H](C)[C@H](NC(=O)[C@H](CCCCN)NC(=O)[C@H](CCC(=O)O)NC(=O)[C@H](CCCCN)NC(=O)[C@H](CO)NC(=O)[C@H](CCCCN)NC(=O)[C@H](CCCNC(=N)N)NC(=O)[C@H](Cc1ccccc1)NC(=O)[C@H](Cc1ccccc1)NC(=O)[C@H](CC(=O)O)NC(=O)CNC(=O)[C@H](CC(C)C)NC(=O)[C@@H](N)CC(C)C)C(=O)NCC(=O)N[C@@H](CCCCN)C(=O)N[C@@H](CCC(=O)O)C(=O)N[C@@H](Cc1ccccc1)C(=O)N[C@@H](CCCCN)C(=O)N[C@@H](CCCNC(=N)N)C(=O)N[C@H](C(=O)N[C@H](C(=O)N[C@@H](CCC(N)=O)C(=O)N[C@@H](CCCNC(=N)N)C(=O)N[C@H](C(=O)N[C@@H](CCCCN)C(=O)N[C@@H](CC(=O)O)C(=O)N[C@@H](Cc1ccccc1)C(=O)N[C@@H](CC(C)C)C(=O)N[C@@H](CCCNC(=N)N)C(=O)N[C@@H](CC(N)=O)C(=O)N[C@@H](CC(C)C)C(=O)N[C@H](C(=O)N1CCC[C@H]1C(=O)N[C@@H](CCCNC(=N)N)C(=O)N[C@H](C(=O)N[C@@H](CCC(=O)O)C(=O)N[C@@H](CO)C(=O)O)[C@@H](C)O)C(C)C)[C@@H](C)CC)C(C)C)[C@@H](C)CC` [LL-37]: the Kd was found to be 0.45 ± 0.01 nM on human SP-A and 1.2 ± 0.7 nM in data set [1]. In the data set on A549 cells [2], the “Sytox Green incorporation, A549, flow cytometry” value was “induced Sytox Green incorporation in human pneumocytes”. Besides, the “LL-37-induced dye uptake with / without P2X7 inhibitor, A549” value in data set [3] was “partially mediated by activation of P2X7 channels”. Also, the “LL-37-induced dye uptake with / without P2X7 inhibitor, U937” value in data set [4] was “partially mediated by activation of P2X7 channels”. Further, the “PI uptake, U937 monocytes” value in the data set with U937 cells was “induced significant PI incorporation into human cells as a function of time”. For the same compound, in the data set on A549 cells [5], the “Sytox Green incorporation, A549, confocal” value was “induced Sytox Green incorporation in human pneumocytes”. Further, the “PI uptake, A549 pneumocytes” value in the data set with A549 cells [6] is “induced significant PI incorporation into human cells as a function of time”.

The values are drawn from paper PMC9464622, “The collectin SP-A and its trimeric recombinant fragment protect alveolar epithelial cells from the cytotoxic and proinflammatory effects of human cathelicidin in vitro” (Frontiers in Immunology, 2022).
